{"source": "patent US20020098186A1", "about": "“Use of endothelin inhibitors for treatment or prevention of fibrotic disorders” (priority 1999, published 2002)", "key": {"[1]": {"system": "rat secondary biliary liver fibrosis (BDO)", "assay": "Histological assessment (staging) of liver fibrosis in BDO rats", "format": "in vivo", "method": "(§1) Female adult wistar rats, average weight 206±19 g, underwent the following microsurgical procedure under an operating microscope (OPMI 6-2, Zeiss, Germany) (B. Gerling, M. Becker, J. Waldschmidt, D. Schuppan (1996). J. Hepatol. 25:79-84; G. Boigk, L. Stroedter, H. Herbst H, et al. (1997). Hepatology 26:643-639.): 1. midline abdominal incision following anaesthesia with 100 mg/kg ketamine-hydroochloride (Ketanest®, Parke-Davis, Germany) and 10 mg/kg 5,6-dihydro-2-(2,6-xylidino)-4H-1,3-thiazine-hydrochloride (Rompun®, Bayer, Germany); 2. dissection of the common bile duct, insertion of a teflon catheter (Abbocath -T 26 G, venisystems, U.S.A.) and placement of a distal complete and a proximal incomplete ligature with 5-0 silk (Permahand , Ethicon, Germany); 3. retrograde injection of sodium-amidotrizoate (Ethibloc®, Ethicon Germany) at a dose of 0.02 ml/100 g body weight; 4. removal of the catheter, closure of the proximal ligature, scission of the bile duct between the ligatures and wound closure. After bile duct occlusion (BDO), animals received normal chow (Altromin®, Lage, Germany) and were allowed free access to water. […] The following therapeutic groups were formed: 1. BDO and LU at 80 mg/kg/d for 6 weeks (BDO 80/1-6:n=20); 2. BDO and LU at 80 mg/kg/d from week 4-6 of BDO (BDO 80/4-6:n=20); 3. BDO and LU at 10 mg/kg/d (sham 80/ 1-6:n=10), rats without medication (control: n=10) and bile duct occluded animals without treatment for 6 weeks (BDO: n=20) served as controls.\nFor each liver 1 μm paraffin sections of the right and the left lobe were stained with hematoxylin/eosin, trichrome (Masson-Goldner) and silver impregnation (Gomori), and scores (see below of both lobes averaged. Inflammation and necrosis were graded according to the histological activity index of Knodell et al. (R. G. Knodell, K. G. Ishak, W. C. Black, et al. (1981). Hepatology 1:431-435.). Staging of fibrosis was modified from (G. Boigk, L. Stroedter, H. Herbst H, et al. (1997). Hepatology 26:643-649.) as follows: stage 0; normal; stage I: portal fiels marginally expanded by bile ductules; stage II: expanded portal fields which occasionally […] each other; stage III: markedly expanded portal fields, all of which broadly contact each other, separating hepatocellular islands; stage IV: the liver is entirely filled with fibrotic biliary proliferations that entrap few residual hepatocytes (severe cirrhosis). Scores of the right and left lobes were averaged to give single numerical values for each liver."}, "[2]": {"assay": "Body and organ weights of rats with bile duct occlusion (BDO) or sham operation", "format": "in vivo", "method": "as §1, with “BDO and LU at 10 mg/kg/d (sham 80/ 1-6:n=10), rats without medication (control: n=10) and bile duct occluded animals without treatment for 6 weeks (BDO: n=20) served as controls.” left out\nEarly mortality (within 1 h to 3 days) in rats with BDO was due to local infection and amounted to 9%. […] After 6 weeks rats were sacrificed under ketanest(rompun-anaesthesia by puncture of the right ventricle and exsanguination. Heart, liver, spleen and kidneys were weighed, and 1-2 g pieces of the left and the right liver lobes fixed in 4% formalin for histology and hydroxyproline (HYP) determinations."}, "[3]": {"system": "aminoterminal propeptide of procollagen type III (PIIINP)", "assay": "Serum PIIINP radioimmunoassay in BDO rats", "format": "in vivo, rat", "conditions": "LU-treated BDO rats, dose-dependent", "method": "as §1, with “BDO and LU at 80 mg/kg/d from week 4-6 of BDO (BDO 80/4-6:n=20); 3. BDO and LU at 10 mg/kg/d (sham 80/ 1-6:n=10), rats without medication (control: n=10) and bile duct occluded animals without treatment for 6 weeks (BDO: n=20) served as controls.” left out\nStandard laboratory parameters were measured by our in-hospital clinical chemical department, using an automated analyser (BM/Hitachi 747). […]"}, "[4]": {"conditions": "BDO/LU 80/1-6: LU 80 mg/kg/d week 1-6"}, "[5]": {"conditions": "BDO/LU 80/4-6: LU 80 mg/kg/d week 4-6"}, "[6]": {"conditions": "BDO/LU 80/1-6: BDO, LU 80 mg/kg/d week 1-6, n = 10"}, "[7]": {"conditions": "BDO/LU 80/4-6: BDO, LU 80 mg/kg/d week 4-6, n = 14"}, "[8]": {"conditions": "Sham/LU: sham operation, LU 80 mg/kg/d for 6 weeks, n = 10"}}}
{"smiles": "COc1cc(OC)nc(O[C@H](C(=O)O)C(OC)(c2ccccc2)c2ccccc2)n1", "note": "[LU]", "values": [{"measurement": "Histological assessment of fibrosis: animals at Stage I", "setting": "[1]; [4]", "result": 2}, {"measurement": "Histological assessment of fibrosis: animals at Stage II", "setting": "[1]; [4]", "result": 4}, {"measurement": "Histological assessment of fibrosis: animals at Stage III", "setting": "[1]; [4]", "result": 4}, {"measurement": "Histological assessment of fibrosis: animals at Stage I", "setting": "[1]; [5]", "result": 4}, {"measurement": "Histological assessment of fibrosis: animals at Stage II", "setting": "[1]; [5]", "result": 5}, {"measurement": "Histological assessment of fibrosis: animals at Stage III", "setting": "[1]; [5]", "result": 3}, {"measurement": "Histological assessment of fibrosis: animals at Stage IV", "setting": "[1]; [5]", "result": 2}, {"measurement": "Histological assessment of fibrosis: animals at Stage I", "setting": "[1]; headed BDO/LU 80/1-6", "result": 8}, {"measurement": "Histological assessment of fibrosis: animals at Stage II", "setting": "[1]; headed BDO/LU 80/1-6", "result": 5}, {"measurement": "Histological assessment of fibrosis: animals at Stage III", "setting": "[1]; headed BDO/LU 80/1-6", "result": 4}, {"measurement": "Histological assessment of fibrosis: animals at Stage IV", "setting": "[1]; headed BDO/LU 80/1-6", "result": 3}, {"measurement": "Histological fibrosis score", "setting": "[1]; rats with BDO, administration of LU", "result": "improved histological fibrosis score"}, {"measurement": "Architectural distortion of the liver, semiquantitatively graded", "setting": "[1]; rats with BDO, low-dose vs high-dose group (not shown)", "result": "even more significantly reduced in the low-than in the high-dose group"}, {"measurement": "B.W.", "setting": "[2]; [6]", "result": "293.0 ± 32.89", "unit": "g"}, {"measurement": "Liver W.", "setting": "[2]; [6]", "result": "24.73 ± 4.47", "unit": "g"}, {"measurement": "Spleen W.", "setting": "[2]; [6]", "result": "1.78 ± 0.47", "unit": "g"}, {"measurement": "B.W.", "setting": "[2]; [7]", "result": "259.1 ± 30.2", "unit": "g"}, {"measurement": "Liver W.", "setting": "[2]; [7]", "result": "23.01 ± 5.33", "unit": "g"}, {"measurement": "Spleen W.", "setting": "[2]; [7]", "result": "1.62 ± 0.46", "unit": "g"}, {"measurement": "B.W.", "setting": "[2]; [8]", "result": "305.8 ± 23.40", "unit": "g"}, {"measurement": "Liver W.", "setting": "[2]; [8]", "result": "11.98 ± 1.95", "unit": "g"}, {"measurement": "Spleen W.", "setting": "[2]; [8]", "result": "0.73 ± 0.08", "unit": "g"}, {"measurement": "Liver and spleen weights", "setting": "[2]; rats with BDO", "result": "reduced liver and spleen weights dose-dependently"}, {"measurement": "Weights of kidneys, heart and lungs", "setting": "[2]; rats with BDO, high and low dose groups (not shown)", "result": "neither nor the low dose groups demonstrated significant differences"}, {"measurement": "Lowering of serum PIIINP", "setting": "[3]", "result": "20-50%"}]}
